# Assay results as given in patent US20230073512A1, “MODULATORS OF CULLIN 3 ADAPTOR KBTBD4 AS ANTI-CANCER COMPOUNDS” (UNIVERSITE DE MONTREAL, priority 2019, published 2023).
# Test system: AML3
# Assay: Cell proliferation of cancerous cell lines
# Assay type: cell-based
# Settings: AML3; read-out: Antineoplastic effect of tested compounds on cell proliferation of cancerous AML3 cells, IC50
row,SMILES,IC50 [nM]
1,COC(=O)c1ccc2c(c1)[nH]c1ncnc(NCc3ccccc3CN(C)C)c12,< 500
2,Cn1nnc(-c2ccc3c(c2)[nH]c2nc(Cc4ccccc4)nc(NCCCN4CCCC4)c23)n1,< 500
3,CNS(=O)(=O)c1cccc(Nc2ncnc3[nH]c4cc(C(=O)OC)ccc4c23)c1,< 500
4,CCNCCNc1nc(Cc2ccccc2)nc2[nH]c3cc(C(=O)OC)ccc3c12,< 500
5,COC(=O)c1ccc2c(c1)[nH]c1ncnc(NCCN3CCCCC3)c12,2000 to 5000
6,COC(=O)c1ccc2c(c1)[nH]c1ncnc(NCCCN3CCCCC3C)c12 (stereo not drawn),2000 to 5000
7,COC(=O)c1ccc2c3c(N(C)CCCN4CCCCC4)ncnc3n(C)c2c1,2000 to 5000
8,COC(=O)c1ccc2c3c(NCCCN4CCCCC4)ncnc3n(C)c2c1,1000 to 2000
9,COC(=O)c1ccc2c(c1)[nH]c1ncnc(NCCCN)c12,1000 to 2000
10,CNCCCNc1ncnc2[nH]c3cc(C(=O)OC)ccc3c12,2000 to 5000
11,COC(=O)c1ccc2c(c1)[nH]c1ncnc(NCC#CCN3CCCCC3)c12,2000 to 5000
12,COC(=O)c1ccc2c(c1)[nH]c1ncnc(NCCCN(C)CCCN)c12,2000 to 5000
13,COC(=O)c1ccc2c(c1)[nH]c1ncnc(N[C@H]3CC[C@H](N)CC3)c12,1000 to 2000
14,COC(=O)c1ccc2c(c1)[nH]c1nc(C)nc(NCCCN3CCCCC3)c12,2000 to 5000
15,COC(=O)c1ccc2c(c1)[nH]c1ccnc(NCCCN3CCCCC3)c12,1000 to 2000
16,COC(=O)c1ccc2c(c1)[nH]c1nc(Cc3ccccc3)nc(NCCCN3CCCCC3)c12,1000 to 2000
17,COC(=O)c1ccc2c(c1)[nH]c1nc(CN(C)C)nc(NCCCN3CCCCC3)c12,2000 to 5000
18,COC(=O)c1ccc2c(c1)[nH]c1ncnc(NCCc3c[nH]c4ccccc34)c12,2000 to 5000
19,COC(=O)c1ccc2c(c1)[nH]c1nc(Cc3ccccc3)nc(NCCNC3=NCCC3)c12,500 to 1000
20,COC(=O)c1ccc2c(c1)[nH]c1nc(Cc3ccccc3)nc(NCCCN(C)CCCNC(=N)N)c12,< 500
21,COC(=O)c1ccc2c(c1)[nH]c1ncnc(NCC(C)(C)CN)c12,2000 to 5000

row,SMILES,IC50 [nM]
1,Cc1nnc(-c2ccc3c(c2)[nH]c2ncnc(NCCCN4CCCCC4)c23)o1,2000 to 5000
2,CCn1nnc(-c2ccc3c(c2)[nH]c2ncnc(NCCCN4CCCCC4)c23)n1,2000 to 5000
3,Cc1nc(-c2ccc3c(c2)[nH]c2ncnc(NCCCN4CCCCC4)c23)no1,2000 to 5000
4,COC(=O)c1ccc2c(c1)[nH]c1nc(Cc3ccccc3)nc(Nc3cccc(NC(C)=O)c3)c12,2000 to 5000
5,COC(=O)c1ccc2c(c1)[nH]c1nc(CCc3ccccc3)nc(NCCCN3CCCCC3)c12,2000 to 5000
6,COC(=O)c1ccc2c(c1)[nH]c1nc(Cc3cccc(C(=O)C(F)(F)F)c3)nc(NCCCN3CCCCC3)c12,1000 to 2000
7,CNCCCNc1nc(Cc2ccccc2)nc2[nH]c3cc(C(=O)OC)ccc3c12,1000 to 2000
8,C#CCOC(CNc1nc(Cc2ccccc2)nc2[nH]c3cc(C(=O)OC)ccc3c12)CN1CCCCC1 (stereo not drawn),2000 to 5000
9,COC(=O)c1ccc2c(c1)[nH]c1nc(Cc3ccccc3)nc(NCC(O)CN3CCCCC3)c12 (stereo not drawn),2000 to 5000
10,COC(=O)c1ccc2c(c1)[nH]c1nc(Cc3ccccc3)nc(NCCCN(C)CCCN)c12,1000 to 2000
11,COC(=O)c1ccc2c(c1)[nH]c1nc(Cc3ccccc3)nc(NCCCN(C)CC(O)COCc3ccccc3)c12 (stereo not drawn),2000 to 5000
12,COC(=O)c1ccc2c(c1)[nH]c1nc(Cc3ccccc3)nc(NCCN(C)CCN)c12,1000 to 2000
13,COC(=O)c1ccc2c(c1)[nH]c1nc(Nc3ccccc3)nc(NCCCN3CCCCC3)c12,1000 to 2000
14,Cc1nc(-c2ccc3c(c2)[nH]c2nc(Cc4ccccc4)nc(NCCCN4CCCCC4)c23)no1,1000 to 2000
15,COC(=O)c1ccc2c(c1)[nH]c1nc(C(OCc3ccccc3)c3ccccc3)nc(NCCCN3CCCCC3)c12 (stereo not drawn),1000 to 2000
16,COC(=O)c1ccc2c(c1)[nH]c1nc(C(O)c3ccccc3)nc(NCCCN3CCCCC3)c12 (stereo not drawn),500 to 1000
17,COC(=O)c1ccc2c(c1)[nH]c1nc(Cc3ccccc3)nc(SCCCN3CCCCC3)c12,2000 to 5000
18,COC(=O)c1ccc2c(c1)[nH]c1nc(C(=O)c3ccccc3)nc(NCCCN3CCCCC3)c12,2000 to 5000
19,COC(=O)c1ccc2c(c1)[nH]c1nc(C(C)c3ccccc3)nc(NCCCN3CCCCC3)c12 (stereo not drawn),2000 to 5000
20,COC(=O)c1ccc2c(c1)[nH]c1nc(Cc3ccccc3)nc(CCCCN3CCCCC3)c12,1000 to 2000
21,C#CCNCCCN(C)CCCNc1nc(Cc2ccccc2)nc2[nH]c3cc(C(=O)OC)ccc3c12,1000 to 2000

row,SMILES,IC50 [nM]
1,COC(=O)c1ccc2c(c1)[nH]c1nc(Cc3ccccc3)nc(NCC3CCCN3)c12 (stereo not drawn),2000 to 5000
2,C#CCCC(=O)NCCCN(C)CCCNc1nc(Cc2ccccc2)nc2[nH]c3cc(C(=O)OC)ccc3c12,500 to 1000
3,COC(=O)c1ccc2c(c1)[nH]c1nc(Cc3ccccc3)nc(NCCCN(C)CCCNc3ncnc4[nH]c5ccccc5c34)c12,2000 to 5000
4,CN1CCN(c2ccc(CNc3nc(Cc4ccccc4)nc4[nH]c5cc(-c6nnn(C)n6)ccc5c34)cc2)CC1,500 to 1000
5,COC(=O)c1ccc2c(c1)[nH]c1nc(Cc3ccccc3)nc(Cl)c12,1000 to 2000
6,COC(=O)c1ccc2c(c1)[nH]c1nc(Cc3ccccc3)nc(NCC3CCNC3)c12 (stereo not drawn),500 to 1000
7,Cn1nnc(-c2ccc3c(c2)[nH]c2ncnc(N[C@H]4CC[C@H](N)CC4)c23)n1,1000 to 2000
8,Cn1nnc(-c2ccc3c(c2)[nH]c2cc(Cc4ccccc4)nc(NCCCN4CCCCC4)c23)n1,1000 to 2000
9,COC(=O)c1ccc2c(c1)[nH]c1nc(Cc3ccccc3)cc(NCCCN3CCCCC3)c12,2000 to 5000
10,COC(=O)c1ccc2c(c1)[nH]c1cc(Cc3ccccc3)nc(NCCN3CCCC3)c12,2000 to 5000
11,CN(CCCN)CCCNc1nc(Cc2ccccc2)nc2[nH]c3cc(-c4nnn(C)n4)ccc3c12,500 to 1000
12,Cn1nnc(-c2ccc3c(c2)[nH]c2nc(Cc4ccccc4)nc(NCCCNCCCN)c23)n1,2000 to 5000
13,CC(=O)NCCNc1nc(Cc2ccccc2)nc2[nH]c3cc(-c4nnn(C)n4)ccc3c12,2000 to 5000
14,Cn1nnc(-c2ccc3c(c2)[nH]c2nc(Cc4ccccc4)nc(NCCCNCCCNC(=O)CCCC[C@@H]4SC[C@@H]5NC(=O)N[C@@H]54)c23)n1,1000 to 2000
15,Cn1nnc(-c2ccc3c(c2)[nH]c2nc(Cc4ccccc4)nc(NCCN)c23)n1,1000 to 2000
16,COC(=O)c1ccc2c(c1)[nH]c1nc(Cc3cccc(F)c3)nc(NCCCN(C)CCCN)c12,2000 to 5000
17,Cn1nnc(-c2ccc3c(c2)[nH]c2ncnc(NCC(O)CN4CCCCC4)c23)n1 (stereo not drawn),1000 to 2000
18,CN(CCCN1CCCCC1)c1ncnc2[nH]c3cc(-c4nnn(C)n4)ccc3c12,1000 to 2000
19,CN(C)CCNc1ncnc2[nH]c3cc(-c4nnn(C)n4)ccc3c12,500 to 1000
20,Cn1nnc(-c2ccc3c(c2)[nH]c2ncnc(N[C@H]4CC[C@H](N(C)C)CC4)c23)n1,500 to 1000
21,Cn1nnc(-c2ccc3c(c2)[nH]c2ncnc(NCCCCN4CCCCC4)c23)n1,1000 to 2000

row,SMILES,IC50 [nM]
1,Cn1nnc(-c2ccc3c(c2)[nH]c2ncnc(NCCCN4CCCC4)c23)n1,1000 to 2000
2,CN(C)CCCN(C)c1ncnc2[nH]c3cc(-c4nnn(C)n4)ccc3c12,1000 to 2000
3,COC(=O)c1cnc2c(c1)[nH]c1nc(C(C)c3ccccc3)nc(NCCCN3CCCCC3)c12 (stereo not drawn),2000 to 5000
4,Cn1nnc(-c2ccc3c(c2)[nH]c2nc(Cc4ccccc4)nc(NCCCCCCCCCCN)c23)n1,1000 to 2000
5,COC(=O)c1cnc2c(c1)[nH]c1nc(Cc3ccc4ccccc4c3)nc(NCCCN3CCCCC3)c12,1000 to 2000
6,COC(=O)c1ccc2c(c1)[nH]c1nc(C)nc(NCCCN(C)CCCN)c12,2000 to 5000
7,COC(=O)c1cnc2c(c1)[nH]c1nc(Cc3ccc4ccccc4c3)nc(N3CCC(N4CCCC4)CC3)c12,500 to 1000
8,C#Cc1cccc(Cc2nc(NCCN(C)CCN)c3c(n2)[nH]c2cc(-c4nnn(C)n4)ccc23)c1,2000 to 5000
9,COC(=O)c1cnc2c(c1)Cc1nc(Cc3ccccc3)nc(NCCCN(C)CCCNc3nc(Cc4ccccc4)nc4[nH]c5cc(C(=O)OC)cnc5c34)c1-2,< 500
10,COC(=O)c1ccc2c(c1)[nH]c1nc(Cc3ccccc3)nc(NCCCN3CCOCC3)c12,2000 to 5000
11,Cn1nnc(-c2ccc3c(c2)[nH]c2ncnc(NCCCNC(=O)C(F)(F)F)c23)n1,2000 to 5000
12,COC(=O)c1ccc2c(c1)[nH]c1cc(Cc3cccc(OC)c3)nc(NCCCCN3CCCC3)c12,1000 to 2000
13,COC(=O)c1ccc2c(c1)[nH]c1cc(Cc3cccc(O)c3)nc(NCCCCN3CCCC3)c12,1000 to 2000
14,CNCCNc1nc(Cc2ccccc2)nc2[nH]c3cc(C(=O)OC)ccc3c12,500 to 1000
15,COC(=O)c1ccc2c(c1)[nH]c1nc(Cc3ccccc3)nc(NCCNC(=O)C(F)F)c12,2000 to 5000
16,COC(=O)c1ccc2c(c1)[nH]c1nc(Cc3ccccc3)nc(NCCCCCN(C)C)c12,500 to 1000
17,COC(=O)c1ccc2c(c1)[nH]c1nc(Cc3ccccc3)nc(NCCCCCCCN)c12,1000 to 2000
18,COC(=O)c1ccc2c(c1)[nH]c1nc(Cc3ccccc3)nc(NCCCCCCN(C)C)c12,500 to 1000
19,COC(=O)c1ccc2c(c1)[nH]c1cc(Cc3ccsc3)nc(NCCCN3CCCCC3)c12,2000 to 5000
20,COC(=O)c1ccc2c(c1)[nH]c1nc(Cc3cccnc3)nc(N3CCC(N4CCCC4)CC3)c12,2000 to 5000
21,COC(=O)c1ccc2c(c1)[nH]c1nc(Cc3ccsc3)nc(N[C@H]3CC[C@H](N)CC3)c12,1000 to 2000
